# According to PMC8202330, “Phosphorylation of the LIR Domain of SCOC Modulates ATG8 Binding Affinity and Specificity” (Journal of Molecular Biology, 2021):
# Residues, ends and D or L forms follow the SMILES beside them. *: point of attachment. Cbz = O=C(OCc1ccccc1)*
# System: EGFP-SCOC (isoform 1 and 3) in HeLa Flp-In T-Rex cells
# Assay: Western blot of EGFP-SCOC protein levels with lysosomal or proteasomal inhibitors
# Format: cell-based
# Conditions: 7 h in full medium or EBSS, 10 µM MG132, 1 µM epoxymycin, 100 nM Bafilomycin A1
# Procedure: To determine whether SCOC is functioning as an autophagy receptor and degraded by autophagy, we induced expression of EGFP-SCOC (isoform 1 and 3) in HeLa cells followed by 7 h EBSS starvation in the presence and absence of lysosomal or proteasomal inhibitors. […] Thus, both SCOC isoform1 and 3 are not turned over by autophagy, but by the proteasome.
# HeLa Flp-In T-Rex cell lines expressing GFP-SCOC (isoform 1), GFP-SCOC (isoform 3), GFP-SCOC F14A/I17A (isoform 3) from a tetracycline inducible CMV promoter were made using the FlpIn T-Rex system (Thermofisher, R71407). pDest-EGFP-Flp-In SCOC iso1, pDest-EGFP-Flp-In SCOC iso3 and pDest-EGFP-Flp-In SCOC iso3 LIRm constructs were established by GATEWAY cloning into the pDEST-EGFP-FlpIn vector.[18] The HeLa-based Flp-In T-Rex host cell line (Invitrogen) contains a single integrated FRT site for insertion of selected constructs. To generate stable cell lines, Flp-In plasmids carrying the selected GFP-tagged constructs were co-transfected with pOG44 encoding the Flp-In recombinase in the ratio of 1:3. Cells were selected by treatment with 200 µg/ml Hygromycin B (Invitrogen, #10687010) and 7,5 µg/ml Blasticidine (Gibco, A1113903). Expression from the CMV-TetO2 promoter was induced by adding 0.5 μg/ml of tetracycline (Sigma, T7660) for 16 to 24 hours. HeLa Flp-In T-Rex cell lines were maintained in Dulbecco’s modified Eagle’s medium supplemented with 10% fetal calf serum, 4 mM l-glutamine, 1% streptomycin-penicillin, 100 µg/ml Hygromycin B, and 3.5 µg/ml Blasticitidine. Cells were treated as indicated with 100 nM Bafilomycin A1, 10 µM MG132, or 1 µM epoxomicin in full medium or Earle’s balanced salt solution (EBSS).
# Cells were lysed in ice-cold TNTE buffer (20 mM Tris-HCl, pH 7.4, 150 mM NaCl, 0.5% w/v Triton X-100, 10% v/v glycerol, 5 mM EDTA) containing EDTA-free Complete Protease Inhibitor cocktail (Roche) and PhosSTOP (Roche). Lysates were cleared by centrifugation and resolved on NuPAGE Bis-Tris 4–12% gels (Life Technologies) followed by transfer onto a PVDF membrane (Millipore). […]
row,SMILES,SCOC isoform 1 and 3 protein levels
1,CO/C1=C\C(C)=C\[C@@H](C)[C@@H](O)[C@@H](C)C/C(C)=C/C=C/[C@H](OC)[C@@H]([C@@H](C)[C@@H](O)[C@H](C)[C@@]2(O)C[C@@H](O)[C@H](C)[C@@H](C(C)C)O2)OC1=O [BafilomycinA1],did not have any effect
2,CC(C)C[C@@H](C=O)NC(=O)[C@H](CC(C)C)NC(=O)[C@H](CC(C)C)NC(=O)OCc1ccccc1 [MG132] (Cbz-Leu-Leu-Leu-aldehyde),increased
3,CC[C@H](C)[C@H](NC(=O)[C@H]([C@@H](C)CC)N(C)C(C)=O)C(=O)N[C@H](C(=O)N[C@@H](CC(C)C)C(=O)[C@@]1(C)CO1)[C@@H](C)O [epoxymycin],increased
